Measured values from patent US20240092784A1, “CONDENSED HETEROCYCLIC COMPOUND” (NISSAN CHEMICAL CORPORATION, priority 2020, published 2024).
pIC50: −log10 of the molar value.

Target: human SPR (Homo sapiens (Human), UniProt P35270)
Test: Evaluation Example 2: Measurement of human SPR inhibitory activity (seven concentrations, sepiapterin absorbance at 420 nm)
Type: biochemical
Settings: sepiapterin absorbance, Table 41, read-out: concentration at 50% inhibition of human SPR (IC50)
Procedure, shortened: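 His-tagged full-length human SPR (1-261) was expressed in E. coli and the tag removed. Enzyme at 150 ng/mL in 100 mM Tris-HCl pH 7.5/0.01% BSA was mixed with compound (0.14–100 nM, seven points), 120 μM sepiapterin and 160 μM NADPH, both as added-solution concentrations. After 240 min at room temperature, remaining sepiapterin was read at 420 nm to give percent inhibition.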

Chain of human SPR (P35270 whole entry): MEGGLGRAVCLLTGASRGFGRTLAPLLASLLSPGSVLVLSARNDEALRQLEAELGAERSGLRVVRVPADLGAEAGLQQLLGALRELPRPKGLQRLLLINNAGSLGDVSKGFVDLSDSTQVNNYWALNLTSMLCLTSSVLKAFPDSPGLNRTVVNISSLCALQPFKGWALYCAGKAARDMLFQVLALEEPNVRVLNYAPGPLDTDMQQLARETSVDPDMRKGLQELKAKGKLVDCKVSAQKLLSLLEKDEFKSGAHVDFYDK

Structure (SMILES)	pIC50
CC(C)Cn1c(=O)c(C(=O)NC2CC2)c(O)n2ncc(/C=C/C(=O)N3CCCC34CC4)c12 [Synthesis Example 721, (E)-N-Cyclopropyl-7-hydroxy-4-isobutyl-5-oxo-3-(3-oxo-3-(4-azaspiro[2.4]heptan-4-yl)prop-1-en-1-yl)-4,5-dihydropyrazolo[1,5-a]pyrimidine-6-carboxamide]	8.98
CC(C)Cn1c(=O)c(C(=O)NC2CC2)c(O)n2ncc(/C=C/C(=O)N3C[C@@H](F)[C@@H](F)C3)c12 [Synthesis Example 722, N-Cyclopropyl-3-((E)-3-(cis-3,4-difluoropyrrolidin-1-yl)-3-oxoprop-1-en-1-yl)-7-hydroxy-4-isobutyl-5-oxo-4,5-dihydropyrazolo[1,5-a]pyrimidine-6-carboxamide]	9.09
CC(C)Cn1c(=O)c(C(=O)NC2CC2)c(O)n2ncc(/C=C/C(=O)N3CCc4cncnc43)c12 [Synthesis Example 724, (E)-N-Cyclopropyl-3-(3-(5,6-dihydro-7H-pyrrolo[2,3-d]pyrimidin-7-yl)-3-oxoprop-1-en-1-yl)-7-hydroxy-4-isobutyl-5-oxo-4,5-dihydropyrazolo[1,5-a]pyrimidine-6-carboxamide]	8.99
CC(C)Cn1c(=O)c(C(=O)NC2CC2)c(O)n2ncc(/C=C/C(=O)N3CCc4ccccc43)c12 [Synthesis Example 725, (E)-N-Cyclopropyl-7-hydroxy-3-(3-(indolin-1-yl)-3-oxoprop-1-en-1-yl)-4-isobutyl-5-oxo-4,5-dihydropyrazolo[1,5-a]pyrimidine-6-carboxamide]	8.44
CC(C)Cn1c(=O)c(C(=O)NC2CC2)c(O)n2ncc(/C=C/C(=O)N3CCN(C4CC(F)(F)C4)C[C@@H]3C)c12 [Synthesis Example 726, (S,E)-N-Cyclopropyl-3-(3-(4-(3,3-difluorocyclobutyl)-2-methylpiperazin-1-yl)-3-oxoprop-1-en-1-yl)-7-hydroxy-4-isobutyl-5-oxo-4,5-dihydropyrazolo[1,5-a]pyrimidine-6-carboxamide]	8.87
CC(C)Cn1c(=O)c(C(=O)NC2CC2)c(O)n2ncc(/C=C/C(=O)N3CCC[C@H]3c3ccccc3)c12 [Synthesis Example 727, (S,E)-N-Cyclopropyl-7-hydroxy-4-isobutyl-5-oxo-3-(3-oxo-3-(2-phenylpyrrolidin-1-yl)prop-1-en-1-yl)-4,5-dihydropyrazolo[1,5-a]pyrimidine-6-carboxamide]	8.87
CC(C)Cn1c(=O)c(C(=O)NC2CC2)c(O)n2ncc(/C=C/C(=O)N3CCOc4cnccc43)c12 [Synthesis Example 728, (E)-N-Cyclopropyl-3-(3-(2,3-dihydro-1H-pyrido[3,4-b][1,4]oxazin-1-yl)-3-oxoprop-1-en-1-yl)-7-hydroxy-4-isobutyl-5-oxo-4,5-dihydropyrazolo[1,5-a]pyrimidine-6-carboxamide]	8.97
CC(C)Cn1c(=O)c(C(=O)NC2CC2)c(O)n2ncc(/C=C/C(=O)N3CCOc4ncccc43)c12 [Synthesis Example 729, (E)-N-Cyclopropyl-3-(3-(2,3-dihydro-1H-pyrido[2,3-b][1,4]oxazin-1-yl)-3-oxoprop-1-en-1-yl)-7-hydroxy-4-isobutyl-5-oxo-4,5-dihydropyrazolo[1,5-a]pyrimidine-6-carboxamide]	8.98
CC(C)Cn1c(=O)c(C(=O)NC2CC2)c(O)n2ncc(/C=C/C(=O)N3CCC[C@H]3C(C)(C)O)c12 [Synthesis Example 730, (S,E)-N-Cyclopropyl-7-hydroxy-3-(3-(2-(2-hydroxypropan-2-yl)pyrrolidin-1-yl)-3-oxoprop-1-en-1-yl)-4-isobutyl-5-oxo-4,5-dihydropyrazolo[1,5-a]pyrimidine-6-carboxamide]	8.90
CC(C)Cn1c(=O)c(C(=O)NC2CC2)c(O)n2ncc(/C=C/C(=O)N3CCc4cc(F)ccc43)c12 [Synthesis Example 731, (E)-N-Cyclopropyl-3-(3-(5-fluoroindolin-1-yl)-3-oxoprop-1-en-1-yl)-7-hydroxy-4-isobutyl-5-oxo-4,5-dihydropyrazolo[1,5-a]pyrimidine-6-carboxamide]	8.54
CC(C)Cn1c(=O)c(C(=O)NC2CC2)c(O)n2ncc(/C=C/C(=O)N3CCc4cc(C#N)ccc43)c12 [Synthesis Example 732, (E)-3-(3-(5-Cyanoindolin-1-yl)-3-oxoprop-1-en-1-yl)-N-cyclopropyl-7-hydroxy-4-isobutyl-5-oxo-4,5-dihydropyrazolo[1,5-a]pyrimidine-6-carboxamide]	8.77
CC(C)Cn1c(=O)c(C(=O)NC2CC2)c(O)n2ncc(/C=C/C(=O)N3CCCC34CCN(C(=O)OC(C)(C)C)CC4)c12 [Synthesis Example 733, Tert-butyl (E)-1-(3-(6-(cyclopropylcarbamoyl)-7-hydroxy-4-isobutyl-5-oxo-4,5-dihydropyrazolo[1,5-a]pyrimidin-3-yl)acryloyl)-1,8-diazaspiro[4.5]decane-8-carboxylate]	8.67
CC(C)Cn1c(=O)c(C(=O)NC2CC2)c(O)n2ncc(/C=C/C(=O)N3CC(C#N)C3)c12 [Synthesis Example 734, (E)-3-(3-(3-Cyanoazetidin-1-yl)-3-oxoprop-1-en-1-yl)-N-cyclopropyl-7-hydroxy-4-isobutyl-5-oxo-4,5-dihydropyrazolo[1,5-a]pyrimidine-6-carboxamide]	9.14
CC(C)Cn1c(=O)c(C(=O)NC2CC2)c(O)n2ncc(/C=C/C(=O)N3CCc4cc(Br)ccc43)c12 [Synthesis Example 735, (E)-3-(3-(5-Bromoindolin-1-yl)-3-oxoprop-1-en-1-yl)-N-cyclopropyl-7-hydroxy-4-isobutyl-5-oxo-4,5-dihydropyrazolo[1,5-a]pyrimidine-6-carboxamide]	8.14
CC(C)Cn1c(=O)c(C(=O)NC2CC2)c(O)n2ncc(/C=C/C(=O)N3CCCC34CCN(C)CC4)c12 [Synthesis Example 736, (E)-N-Cyclopropyl-7-hydroxy-4-isobutyl-3-(3-(8-methyl-1,8-diazaspiro[4.5]decan-1-yl)-3-oxoprop-1-en-1-yl)-5-oxo-4,5-dihydropyrazolo[1,5-a]pyrimidine-6-carboxamide]	8.97
CC(=O)N1CCC2(CCCN2C(=O)/C=C/c2cnn3c(O)c(C(=O)NC4CC4)c(=O)n(CC(C)C)c23)CC1 [Synthesis Example 737, (E)-3-(3-(8-Acetyl-1,8-diazaspiro[4.5]decan-1-yl)-3-oxoprop-1-en-1-yl)-N-cyclopropyl-7-hydroxy-4-isobutyl-5-oxo-4,5-dihydropyrazolo[1,5-a]pyrimidine-6-carboxamide]	8.72
CC(C)Cn1c(=O)c(C(=O)NC2CC2)c(O)n2ncc(/C=C/C(=O)N3CCOc4ccncc43)c12 [Synthesis Example 738, (E)-N-Cyclopropyl-3-(3-(2,3-dihydro-4H-pyrido[4,3-b][1,4]oxazin-4-yl)-3-oxoprop-1-en-1-yl)-7-hydroxy-4-isobutyl-5-oxo-4,5-dihydropyrazolo[1,5-a]pyrimidine-6-carboxamide]	8.86
CC(C)Cn1c(=O)c(C(=O)NC2CC2)c(O)n2ncc(/C=C/C(=O)N3CCOc4ccccc43)c12 [Synthesis Example 739, (E)-N-Cyclopropyl-3-(3-(2,3-dihydro-4H-benz[b][1,4]oxazin-4-yl)-3-oxoprop-1-en-1-yl)-7-hydroxy-4-isobutyl-5-oxo-4,5-dihydropyrazolo[1,5-a]pyrimidine-6-carboxamide]	8.81
CC(C)Cn1c(=O)c(C(=O)NC2CC2)c(O)n2ncc(/C=C/C(=O)N3CCc4cnccc43)c12 [Synthesis Example 740, (E)-N-Cyclopropyl-3-(3-(2,3-dihydro-1H-pyrrolo[3,2-c]pyridin-1-yl)-3-oxoprop-1-en-1-yl)-7-hydroxy-4-isobutyl-5-oxo-4,5-dihydropyrazolo[1,5-a]pyrimidine-6-carboxamide]	8.74
CC(C)Cn1c(=O)c(C(=O)NC2CC2)c(O)n2ncc(/C=C/C(=O)N3C[C@@H](C)OC[C@@H]3C)c12 [Synthesis Example 741, N-Cyclopropyl-3-((E)-3-((2R,5S)-2,5-dimethylmorpholino)-3-oxoprop-1-en-1-yl)-7-hydroxy-4-isobutyl-5-oxo-4,5-dihydropyrazolo[1,5-a]pyrimidine-6-carboxamide]	9.01
CC(C)Cn1c(=O)c(C(=O)NC2CC2)c(O)n2ncc(/C=C/C(=O)N3CCc4ccncc43)c12 [Synthesis Example 742, (E)-N-Cyclopropyl-3-(3-(2,3-dihydro-1H-pyrrolo[2,3-c]pyridin-1-yl)-3-oxoprop-1-en-1-yl)-7-hydroxy-4-isobutyl-5-oxo-4,5-dihydropyrazolo[1,5-a]pyrimidine-6-carboxamide]	8.80
CC(C)Cn1c(=O)c(C(=O)NC2CC2)c(O)n2ncc(/C=C/C(=O)N3CC[C@@H](C(C)(C)O)C3)c12 [Synthesis Example 743, (R,E)-N-Cyclopropyl-7-hydroxy-3-(3-(3-(2-hydroxypropan-2-yl)pyrrolidin-1-yl)-3-oxoprop-1-en-1-yl)-4-isobutyl-5-oxo-4,5-dihydropyrazolo[1,5-a]pyrimidine-6-carboxamide]	8.88
CC(C)Cn1c(=O)c(C(=O)NC2CC2)c(O)n2ncc(/C=C/C(=O)N3CCN(CC4CC(F)(F)C4)C[C@@H]3C)c12 [Synthesis Example 744, (S,E)-N-Cyclopropyl-3-(3-(4-((3,3-difluorocyclobutyl)methyl)-2-methylpiperazin-1-yl)-3-oxoprop-1-en-1-yl)-7-hydroxy-4-isobutyl-5-oxo-4,5-dihydropyrazolo[1,5-a]pyrimidine-6-carboxamide]	8.80
CC(C)Cn1c(=O)c(C(=O)NC2CC2)c(O)n2ncc(/C=C/C(=O)N3CCN(CC4CC(F)(F)C4)C[C@H]3C)c12 [Synthesis Example 745, (R,E)-N-Cyclopropyl-3-(3-(4-((3,3-difluorocyclobutyl)methyl)-2-methylpiperazin-1-yl)-3-oxoprop-1-en-1-yl)-7-hydroxy-4-isobutyl-5-oxo-4,5-dihydropyrazolo[1,5-a]pyrimidine-6-carboxamide]	8.73
